Experimental findings from ChEMBL document CHEMBL5331068, “Briarane-type diterpenoids, the inhibitors of osteoclast formation by interrupting Keap1-Nrf2 interaction and activating Nrf2 pathway” (Eur J Med Chem, 2023) are described below.

The subject of one data set is Danio rerio. Nature of the data set: Anti osteoporosis activity in prednisone induced AB Zebrafish model of osteopenia assessed as increase in bone mineralization at 5 to 10 uM administered after 3 days post fertilization and measured after 6 days by Alizarin red staining based analysis. The settings on record: dose 5-10 µM, time 6.0 day. In kind it is functional, organism-based.

Data set [1] addresses T1, Kelch-like ECH-associated protein 1 (Homo sapiens, UniProt Q14145). Description: Binding affinity to recombinant human Keap1 by SPR analysis. A general note: SPR reads the build-up and loss of mass on a sensor chip optically.
Data set [2] concerns the target T2, Nuclear factor erythroid 2-related factor 2 (Mus musculus) (UniProt Q60795).
T2 sequence (whole entry): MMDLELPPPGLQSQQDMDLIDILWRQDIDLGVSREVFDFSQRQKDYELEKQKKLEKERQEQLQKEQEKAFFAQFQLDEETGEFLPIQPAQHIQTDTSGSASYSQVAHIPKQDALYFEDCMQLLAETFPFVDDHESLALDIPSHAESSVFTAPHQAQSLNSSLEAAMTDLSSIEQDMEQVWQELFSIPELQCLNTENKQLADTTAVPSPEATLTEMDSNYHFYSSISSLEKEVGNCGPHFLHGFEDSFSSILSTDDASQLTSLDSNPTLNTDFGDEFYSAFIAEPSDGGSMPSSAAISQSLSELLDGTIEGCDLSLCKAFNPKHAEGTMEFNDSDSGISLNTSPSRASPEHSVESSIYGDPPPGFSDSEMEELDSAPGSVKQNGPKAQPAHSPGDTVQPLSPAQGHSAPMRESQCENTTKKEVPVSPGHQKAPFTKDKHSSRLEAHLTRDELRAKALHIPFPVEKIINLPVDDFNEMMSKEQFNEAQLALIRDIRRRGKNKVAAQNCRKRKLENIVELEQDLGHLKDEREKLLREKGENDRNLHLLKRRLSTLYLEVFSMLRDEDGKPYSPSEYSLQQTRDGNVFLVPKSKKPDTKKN
Description: Stabilization of Nrf2 in mouse RAW264.7 cells assessed as decrease in Nrf2 ubiquitination at 10 uM incubated for 48 hrs by Western blot based Co-immunoprecipitation analysis. The class given is cell-based. For orientation: A western blot detects proteins with antibodies after separation by electrophoresis.

Data set [3] is described as follows: Inhibition of RANKL-induced ERK phosphorylation in C57BL/6 mouse BMDM cells incubated for 60 mins by Western blot analysis. The class given is cell-based.
In data set [4] the test system is RAW264.7. Description: Anti-osteoclastogenesis activity in RANKL-induced mouse RAW264.7 cells transfected with Nrf2 siRNA assessed as increase in HO-1 expression level incubated for 3 days by Western blot analysis. In kind it is functional, cell-based. The settings on record: time 3.0 day.
For data set [5], the system named is BMDM. Description: Anti-osteoclastogenesis activity in RANKL-induced C57BL/6 mouse BMDM cells assessed as downregulation of MMP-9 mRNA expression at 5 to 10 uM by qRT-PCR analysis. In kind it is functional, cell-based. The settings on record: dose 5-10 µM. Background: In qPCR the cycle at which signal appears reflects the starting amount.
For data set [6], the target named is MAP kinase p38 (Mus musculus) (UniProt P47811+O08911+Q9WUI1+Q9Z1B7). Description: Inhibition of RANKL-induced p38 MAPK phosphorylation in C57BL/6 mouse BMDM cells transfected with Nrf2 siRNA at 10 uM incubated for 60 mins by Western blot analysis. The class given is cell-based.
Data set [7] is described as follows: Cytotoxicity against C57BL/6 mouse BMDM cells incubated for 48 hrs by MTT assay. The class given is toxicity, cell-based. The settings on record: BMDM cells (bone marrow-derived macrophages).
Data set [8] concerns BMDM. Description: Anti-osteoclastogenesis activity in RANKL-induced C57BL/6 mouse BMDM cells assessed as inhibition of NFATc1 translocation into nuclei incubated for 3 days by DAPI staining based confocal microscopic analysis. The class given is functional, cell-based. The settings on record: time 3.0 day.
Data set [9] addresses Kelch-like ECH-associated protein 1 (Mus musculus) (UniProt Q9Z2X8). Nature of the data set: Binding affinity to Keap1 in mouse RAW264.7 cells assessed as thermal stability at 20 uM preincubated with compound for 1 hrs followed by heating at 37 to 65 degreeC for 3 mins by CETSA. In kind it is cell-based. To be noted: time 63.0 min.
Data set [10] deals with RAW264.7. Nature of the data set: Anti-osteoclastogenesis activity in RANKL-induced mouse RAW264.7 cells transfected with Nrf2 siRNA assessed as increase in NFATc1 expression level incubated for 3 days by Western blot analysis. In kind it is functional, cell-based. The settings on record: time 3.0 day.
Data set [11] relates to BMDM. Nature of the data set: Anti-osteoclastogenesis activity in C57BL/6 mouse BMDM cells assessed as inhibition of RANKL-induced osteoclastogenesis at 10 uM incubated for 7 days in the presence of M-CSF by TRAP-staining based microscopic analysis relative to control. In kind it is functional. The settings on record: C57BL/6, BMDM, 168 h, time 7 day.
Data set [12] has as its system BMDM. Nature of the data set: Inhibition of osteoclast migration in RANKL-induced C57BL/6 mouse BMDM cells at 10 uM incubated for 48 hrs in the presence of M-CSF by TRAP staining based wound healing assay. The class given is functional, cell-based.
The test system of data set [13] is BMDM. Nature of the data set: Anti-osteoclastogenesis activity in RANKL-induced C57BL/6 mouse BMDM cells assessed as decrease in number of F-actin ring formation at 1 to 10 uM incubated for 7 days in the presence of M-CSF by DAPI staining based fluorescence microscopic analysis. The settings on record: dose 1-10 µM, time 7.0 day. In kind it is functional, cell-based.

Data set [14] deals with T3, NF-kappa-B inhibitor alpha (Mus musculus) (UniProt Q9Z1E3).
T3 sequence (whole entry): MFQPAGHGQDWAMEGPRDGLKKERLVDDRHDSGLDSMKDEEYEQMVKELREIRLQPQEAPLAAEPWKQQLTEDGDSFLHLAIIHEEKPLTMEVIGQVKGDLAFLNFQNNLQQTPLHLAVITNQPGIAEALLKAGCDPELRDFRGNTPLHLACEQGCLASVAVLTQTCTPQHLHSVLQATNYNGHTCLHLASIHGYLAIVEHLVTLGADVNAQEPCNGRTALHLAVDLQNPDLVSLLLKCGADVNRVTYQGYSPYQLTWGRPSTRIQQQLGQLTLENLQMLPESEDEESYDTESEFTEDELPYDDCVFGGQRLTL
Nature of the data set: Inhibition of RANKL-induced IkappaBalpha phosphorylation in C57BL/6 mouse BMDM cells transfected with Nrf2 siRNA at 10 uM incubated for 60 mins by Western blot analysis. In kind it is cell-based.

For data set [15], the system named is BMDM. Nature of the data set: Anti-osteoclastogenesis activity in RANKL-induced C57BL/6 mouse BMDM cells assessed as increase in NQO-1 expression at 5 to 10 uM in the presence of M-CSF by Western blot analysis. The class given is functional, cell-based. The settings on record: dose 5-10 µM.
Data set [16] has as its target T1, Kelch-like ECH-associated protein 1. Description: Binding affinity to recombinant human Keap1 assessed as equilibrium dissociation constant by SPR analysis.
Data set [17] concerns BMDM. Description: Anti-osteoclastogenesis activity in RANKL-induced C57BL/6 mouse BMDM cells assessed as increase in nuclear Nrf2 level at 5 to 10 uM in the presence of M-CSF by Western blot analysis. The class given is functional, cell-based. To be noted: dose 5-10 µM.
In data set [18] the target is T3, NF-kappa-B inhibitor alpha (Mus musculus). Nature of the data set: Inhibition of RANKL-induced IkappaBalpha phosphorylation in C57BL/6 mouse BMDM cells incubated for 60 mins by Western blot analysis. In kind it is cell-based.
Data set [19] deals with BMDM. Nature of the data set: Anti-osteoclastogenesis activity in RANKL-induced C57BL/6 mouse BMDM cells assessed as inhibition of c-Fos protein level at 5 to 10 uM in the presence of M-CSF by Western blot analysis. In kind it is functional, cell-based. The settings on record: dose 5-10 µM.
Data set [20] relates to BMDM. Nature of the data set: Anti-osteoclastogenesis activity in RANKL-induced C57BL/6 mouse BMDM cells assessed as inhibition of bone resorption by measuring downregulation of Cathepsin K expression at 5 to 10 uM in the presence of M-CSF by Western blot analysis. In kind it is functional, cell-based. The settings on record: dose 5-10 µM.
Data set [21] concerns BMDM. Nature of the data set: Anti-osteoclastogenesis activity in RANKL-induced C57BL/6 mouse BMDM cells assessed as increase in HO-1 expression at 5 to 10 uM in the presence of M-CSF by Western blot analysis. In kind it is functional, cell-based. The settings on record: dose 5-10 µM.

Molecules are shown by their SMILES. Active and inactive are the calls of the source. The rule behind the calls is not given here.

T1 sequence (Q14145 whole entry): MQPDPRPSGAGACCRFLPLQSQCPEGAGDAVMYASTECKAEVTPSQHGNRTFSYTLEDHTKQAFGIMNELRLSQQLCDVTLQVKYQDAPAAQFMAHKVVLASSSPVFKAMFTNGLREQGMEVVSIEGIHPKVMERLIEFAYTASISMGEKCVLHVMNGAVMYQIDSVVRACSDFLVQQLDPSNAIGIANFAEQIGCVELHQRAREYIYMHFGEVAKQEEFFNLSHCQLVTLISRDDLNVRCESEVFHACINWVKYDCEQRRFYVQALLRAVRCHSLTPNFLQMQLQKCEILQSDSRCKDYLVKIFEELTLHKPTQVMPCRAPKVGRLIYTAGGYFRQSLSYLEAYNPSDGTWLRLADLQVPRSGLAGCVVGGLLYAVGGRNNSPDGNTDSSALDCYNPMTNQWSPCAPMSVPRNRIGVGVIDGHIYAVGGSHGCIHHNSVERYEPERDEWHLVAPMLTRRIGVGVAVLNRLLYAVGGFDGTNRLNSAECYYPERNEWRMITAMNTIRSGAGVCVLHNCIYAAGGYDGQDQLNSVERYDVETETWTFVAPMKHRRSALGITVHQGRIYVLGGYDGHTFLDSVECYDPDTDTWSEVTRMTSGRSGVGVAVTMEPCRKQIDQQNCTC
Kelch-like ECH-associated protein 1 (Mus musculus), sequence (Q9Z2X8 whole entry): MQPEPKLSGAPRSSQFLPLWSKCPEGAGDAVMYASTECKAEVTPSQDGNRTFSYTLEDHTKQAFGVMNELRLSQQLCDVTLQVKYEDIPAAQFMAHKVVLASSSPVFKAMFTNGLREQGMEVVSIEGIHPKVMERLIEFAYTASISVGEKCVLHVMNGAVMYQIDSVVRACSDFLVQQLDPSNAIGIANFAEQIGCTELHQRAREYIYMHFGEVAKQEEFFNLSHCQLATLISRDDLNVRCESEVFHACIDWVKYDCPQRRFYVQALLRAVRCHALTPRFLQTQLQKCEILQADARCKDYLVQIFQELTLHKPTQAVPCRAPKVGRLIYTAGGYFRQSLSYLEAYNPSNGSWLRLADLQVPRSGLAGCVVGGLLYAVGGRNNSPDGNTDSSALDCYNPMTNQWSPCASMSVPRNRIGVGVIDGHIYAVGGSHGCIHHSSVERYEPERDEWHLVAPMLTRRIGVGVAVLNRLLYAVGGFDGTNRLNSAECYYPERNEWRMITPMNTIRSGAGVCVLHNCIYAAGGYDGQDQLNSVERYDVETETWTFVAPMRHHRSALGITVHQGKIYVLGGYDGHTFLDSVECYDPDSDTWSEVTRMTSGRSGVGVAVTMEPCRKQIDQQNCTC

The inhibition is the drop in the measured response relative to a control, in per cent. The term CC50 denotes the concentration at which the toxic effect on the cells reaches its halfway point. A lower CC50 goes with harm at low concentration. For orientation: Kd means a measure of binding affinity in units of concentration. With `C=C1[C@H]2O[C@]3([C@@H](C)C(=O)O[C@H]3[C@H]1Cl)[C@@H](OC(C)=O)[C@H]1[C@]3(CC[C@H](OC(C)=O)[C@]1(C)[C@@H](OC(C)=O)[C@@H]2OC(C)=O)CO3`, the result (with Danio rerio; in [1]; in [2]; in the data set with BMDM [5]; with BMDM [8]; in [9]) was Active. The result in the data set on BMDM [13], in the data set with BMDM [15], in the data set on BMDM [17], with BMDM [19], in the data set with BMDM [20] and in the data set on BMDM [21] was Active. The inhibition entry (in data set [3]; with BMDM [12]; in [18]) was “Active” throughout. For the same molecule, the outcome in the data set with RAW264.7 [4] and with RAW264.7 [10] was inactive. Also, the inhibition result in [6] and in data set [14] was “inactive” each time. For the same molecule, the CC50 at 48 h in data set [7] is > 50 µM. The inhibition at 10 µM with BMDM [11] stood at 100%. The dissociation constant (Kd) in data set [16] is 6.4 µM.
